Reference: PubChem BioAssay AID256 (DTP/NCI, 2004)
“And” between values parts separate entries of the source, which are not always exact repeats. Identical values can stand only once. Toxic doses and inconclusive results are not listed. How the source made its calls: active means survival T/C of 150% or more; inactive means T/C below 125% in these data.

Test system: CD2F1 mice, L1210 leukemia ip, survival T/C
Assay: NCI In Vivo Anticancer Drug Screen. Data for tumor model L1210 Leukemia (intraperitoneal) in CD2F1 (CDF1) mice
Details: endpoint: mean survival time, higher = longer survival
How it was run: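 Vehicle-treated tumor-bearing mice served as controls (C) for compound-treated mice (T). Reported figure is T divided by C.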

[1] = dose: 100.0 mg/kg/injection, schedule: Q01DX009 (ip), vehicle: saline with Tween-80
[2] = dose: 200.0 mg/kg/injection, schedule: Q01DX009 (ip), vehicle: saline with Tween-80
[3] = dose: 400.0 mg/kg/injection, schedule: Q01DX009 (ip), vehicle: saline with Tween-80
[4] = dose: 100.0 mg/kg/injection, schedule: Q04DX003 (ip), vehicle: saline with Tween-80
[5] = dose: 200.0 mg/kg/injection, schedule: Q04DX003 (ip), vehicle: saline with Tween-80

Measured: T/C

CCOC(=O)c1cnc(SC)nc1NCc1ccc(Cl)cc1
inactive: dose: 100.0 mg/kg/injection, schedule: Q01DX001 (ip), vehicle: saline with Tween-80 98 % of control | [1] 100 % of control | dose: 200.0 mg/kg/injection, schedule: Q01DX001 (ip), vehicle: saline with Tween-80 102 % of control | [2] 103 % of control | dose: 400.0 mg/kg/injection, schedule: Q01DX001 (ip), vehicle: saline with Tween-80 94 % of control | [3] 97 % of control

CC(=O)OC1(C)CC(C)C(=O)C(C(O)CC2CC(=O)NC(=O)C2)C1 (configuration not stated)
inactive: dose: 0.03 mg/kg/injection, schedule: Q01DX009 (ip), vehicle: saline 103 % of control | dose: 0.04 mg/kg/injection, schedule: Q01DX009 (ip), vehicle: saline 94 % of control | dose: 0.06 mg/kg/injection, schedule: Q01DX009 (ip), vehicle: saline 105 % of control and 107 % of control | dose: 0.13 mg/kg/injection, schedule: Q01DX009 (ip), vehicle: saline 114 % of control

CCCC(N(C)C)P(=O)(O)O (configuration not stated)
inactive: dose: 100.0 mg/kg/injection, schedule: Q04DX003 (ip), vehicle: saline 95 % of control | dose: 200.0 mg/kg/injection, schedule: Q04DX003 (ip), vehicle: saline 101 % of control | dose: 400.0 mg/kg/injection, schedule: Q04DX003 (ip), vehicle: saline 101 % of control

Cc1ccc(/C=N/N2C(=O)CSC2=S)cc1
inactive: dose: 75.0 mg/kg/injection, schedule: Q01DX001 (ip), vehicle: other 102 % of control | dose: 150.0 mg/kg/injection, schedule: Q01DX001 (ip), vehicle: other 97 % of control

O=C(CN1CC1)NCCCCCCCCNC(=O)CN1CC1
inactive: dose: 4.4 mg/kg/injection, schedule: Q01DX009 (ip), vehicle: carboxymethylcellulose (CMC) 116 % of control | dose: 6.6 mg/kg/injection, schedule: Q01DX009 (ip), vehicle: carboxymethylcellulose (CMC) 122 % of control | dose: 22.0 mg/kg/injection, schedule: Q01DX001 (ip), vehicle: carboxymethylcellulose (CMC) 120 % of control | dose: 33.0 mg/kg/injection, schedule: Q01DX001 (ip), vehicle: carboxymethylcellulose (CMC) 123 % of control

COC(=O)c1cccc(I)c1
inactive: dose: 100.0 mg/kg/injection, schedule: Q04DX002 (ip), vehicle: saline with Tween-80 100 % of control | dose: 200.0 mg/kg/injection, schedule: Q04DX002 (ip), vehicle: saline with Tween-80 100 % of control | dose: 400.0 mg/kg/injection, schedule: Q04DX002 (ip), vehicle: saline with Tween-80 96 % of control

COC(=O)/C=C\C(=O)O
inactive: dose: 50.0 mg/kg/injection, schedule: Q01DX009 (ip), vehicle: saline 102 % of control | dose: 100.0 mg/kg/injection, schedule: Q01DX009 (ip), vehicle: saline 100 % of control

Cc1ncc(C(=O)O)n1Cc1ccccc1
inactive: [1] 94 % of control | [2] 94 % of control | [3] 92 % of control

CN(C)S(=O)(=O)Oc1cccc(N)c1
inactive: [4] 92 % of control | [5] 87 % of control

Cc1nc(SCc2ccc(Cl)cc2)[nH]c(=O)c1CCO
inactive: [4] 92 % of control | [5] 96 % of control | dose: 400.0 mg/kg/injection, schedule: Q04DX003 (ip), vehicle: saline with Tween-80 94 % of control
